What was measured:
[1] = tested on: α1 adrenergic receptors (rat cerebral cortex); test: Radioligand binding assay, adrenergic α1 receptors; details: test compound 1×10^−6 M
Procedure, shortened: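 Values derive from radioligand displacement, with non-specific binding defined by excess cold ligand and detection by scintillation. Hill-fit IC50s were converted to Ki via Cheng-Prusoff using Scatchard-derived Kd; percent inhibition of control specific binding also reported.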

[2] = biological target: T1, H1 histaminergic receptors (Homo sapiens, UniProt P35367); test: Radioligand binding assay, histaminergic H1 receptors; details: human recombinant (HEK-293 cells), [3H]pyrilamine 1 nM
T1 construct: expressed in transfected cells; host or cells: HEK-293 cells
Description: (§1) The specific ligand binding to the receptors is defined as the difference between the total binding and the non-specific binding determined in the presence of the excess of unlabelled ligand.
(§2) The results are expressed as a percent of control specific binding ((measured specific binding/control specific binding)×100) and as a percent inhibition of control specific binding (100−((measured specific binding/control specific binding)×100)) obtained in the presence of the test compounds. The specific ligand binding to the receptors is defined as the difference between the total binding and the nonspecific binding determined in the presence of an excess of unlabelled ligand. Scintillation counting was the method of detection of ligand binding. The IC50 values (concentration causing a half-maximal inhibition of control specific binding) were determined by non-linear regression analysis of the competition curves generated with mean replicate values using Hill equation curve fitting (Y=D+[(A−D)/(1+(C/C50)nH)], where Y=specific binding, D=minimum specific binding, A=maximum specific binding, C=compound concentration, C50=IC50, and nH=slope factor). This analysis was performed using a software developed at Cerep (Hill software) and validated by comparison with data generated by the commercial software SigmaPlot® 4.0 for Windows® (© 1997 by SPSS Inc.). The inhibition constants (Ki) were calculated using the Cheng Prusoff equation (Ki=IC50/(1+(L/KD)), where L=concentration of radioligand in the assay, and KD=affinity of the radioligand for the receptor). A scatchard plot was used to determine the Kd.
Experimental conditions for tests are given in Table 14, and results of tests for representative compounds are presented in Table 15.

M3 muscarinic receptors = biological target: T2, M3 muscarinic receptors (Homo sapiens, UniProt P20309); test: Radioligand binding assay, muscarinic M3 receptors; details: test compound 1×10^−6 M
T2 construct: expressed in transfected cells; host or cells: CHO cells
Description: as §1, §2
Experimental conditions for tests are given in Table 10, and results of tests for representative compounds are given in Table 11.

[3] = biological target: T3, serotonin transporter (SERT) (Homo sapiens, UniProt P31645); test: Radioligand binding assay, serotonin transporter (SERT); details: for inhibition at 1 µM / SERT [%]: binding assay, test compound 1×10^−6 M
T3 construct: expressed in transfected cells; host or cells: CHO cells
Procedure, shortened: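 Radioligand competition binding with scintillation detection; specific binding is total minus binding under excess unlabelled ligand. Reported as % of control specific binding or % inhibition; IC50 from Hill-equation non-linear regression of competition curves, and Ki via Cheng-Prusoff using radioligand concentration and Scatchard-derived KD.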

5-HT2A receptor = biological target: T4, 5-HT2A receptor (Homo sapiens, UniProt P28223); test: Radioligand binding assay, serotoninergic 5-HT2A receptors; details: for inhibition at 1 µM / 5-HT2A [%]: binding assay result in %, Table 5a; for Ki: read-out: Inhibition constants Ki, 5-HT2A
T4 construct: purchased PerkinElmer
Procedure, shortened: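 Radioligand competition binding with scintillation counting; nonspecific binding defined by excess unlabelled ligand. Data as percent inhibition of control specific binding. IC50 by Hill-equation fit of competition curves; Ki by Cheng-Prusoff, with radioligand Kd from Scatchard plot.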

[4] = biological target: dopaminergic receptors D3 (Homo sapiens, UniProt P35462); test: Radioligand binding assay, dopaminergic D3 receptors; details: test compound 1×10^−6 M
Procedure, shortened: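 Competition radioligand binding at human D2, D3 and D4.4 receptors, detected by scintillation counting; nonspecific binding defined with excess unlabelled ligand. Results as percent inhibition of control specific binding; IC50 by Hill-equation nonlinear regression; Ki via Cheng-Prusoff, with radioligand KD from Scatchard plot.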

[5] = biological target: dopaminergic receptors D2 (Homo sapiens, UniProt P14416); test: Radioligand binding assay, dopaminergic D2 receptors; details: for inhibition at 1 µM / D2 [%]: binding assay, test compound 1×10^−6 M; for Ki: read-out: Inhibition constants Ki for D2 receptors, D2
Procedure, shortened: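 Radioligand displacement was measured by scintillation counting, with non-specific binding defined in the presence of excess unlabelled ligand. Competition curves were fitted to the Hill equation to give IC50, and Ki was derived by the Cheng–Prusoff equation.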

receptors D4.4 = biological target: T5, receptors D4.4 (Homo sapiens, UniProt P21917); test: Radioligand binding assay, dopaminergic D4 (D4.4) receptors; details: test compound 1×10^−6 M
T5 sequence (P21917 1-419): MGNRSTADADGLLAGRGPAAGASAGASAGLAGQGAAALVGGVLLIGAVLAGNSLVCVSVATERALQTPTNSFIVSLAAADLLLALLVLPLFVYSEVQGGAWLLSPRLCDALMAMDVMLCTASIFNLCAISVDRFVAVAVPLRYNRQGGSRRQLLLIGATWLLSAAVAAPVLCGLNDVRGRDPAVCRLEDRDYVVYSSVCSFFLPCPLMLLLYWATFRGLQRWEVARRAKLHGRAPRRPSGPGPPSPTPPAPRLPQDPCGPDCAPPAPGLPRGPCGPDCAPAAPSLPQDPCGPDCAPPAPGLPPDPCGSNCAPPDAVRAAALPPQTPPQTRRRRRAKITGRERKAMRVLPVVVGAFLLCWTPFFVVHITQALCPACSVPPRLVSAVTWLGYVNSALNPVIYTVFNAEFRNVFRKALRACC
Description: as §1, §2
Experimental conditions for tests are given in Table 1, the results of tests for representative compounds are given in Tables 2a and 2b (receptors D2 and D3) and in Table 3 (receptors D4).

5-HT6 receptor = biological target: T6, 5-HT6 receptor (Homo sapiens, UniProt P50406); test: Radioligand binding assay, serotoninergic 5-HT6 receptors; details: for inhibition at 1 µM / 5-HT6 [%]: binding assay result in %, Table 5a; for Ki: read-out: Inhibition constants Ki, 5-HT6
T6 construct: purchased PerkinElmer
Procedure, shortened: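 Values are Ki from Cheng–Prusoff, taking IC50 from Hill nonlinear regression of competition curves and KD from a Scatchard plot. Specific binding was total minus binding with excess unlabelled ligand. Radioligand displacement was detected by scintillation counting, and data were also reported as percent of control specific binding.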

T2 sequence (P20309 whole entry): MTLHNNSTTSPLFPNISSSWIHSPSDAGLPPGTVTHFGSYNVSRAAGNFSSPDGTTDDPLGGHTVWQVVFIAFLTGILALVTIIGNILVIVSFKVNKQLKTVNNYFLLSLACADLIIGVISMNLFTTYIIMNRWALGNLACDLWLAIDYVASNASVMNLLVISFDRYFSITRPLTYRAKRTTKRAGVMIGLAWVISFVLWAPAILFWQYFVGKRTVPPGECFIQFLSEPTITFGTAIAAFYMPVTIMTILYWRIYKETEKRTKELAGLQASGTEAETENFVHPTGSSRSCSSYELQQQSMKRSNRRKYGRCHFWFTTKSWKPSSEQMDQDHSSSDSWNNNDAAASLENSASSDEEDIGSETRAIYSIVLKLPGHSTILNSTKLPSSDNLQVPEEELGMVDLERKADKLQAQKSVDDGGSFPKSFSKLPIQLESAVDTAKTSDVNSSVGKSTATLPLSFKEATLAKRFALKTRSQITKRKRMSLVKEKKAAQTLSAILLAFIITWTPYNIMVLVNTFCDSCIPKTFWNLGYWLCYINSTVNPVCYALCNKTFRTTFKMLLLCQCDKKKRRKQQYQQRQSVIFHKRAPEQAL
T3 sequence (P31645 whole entry): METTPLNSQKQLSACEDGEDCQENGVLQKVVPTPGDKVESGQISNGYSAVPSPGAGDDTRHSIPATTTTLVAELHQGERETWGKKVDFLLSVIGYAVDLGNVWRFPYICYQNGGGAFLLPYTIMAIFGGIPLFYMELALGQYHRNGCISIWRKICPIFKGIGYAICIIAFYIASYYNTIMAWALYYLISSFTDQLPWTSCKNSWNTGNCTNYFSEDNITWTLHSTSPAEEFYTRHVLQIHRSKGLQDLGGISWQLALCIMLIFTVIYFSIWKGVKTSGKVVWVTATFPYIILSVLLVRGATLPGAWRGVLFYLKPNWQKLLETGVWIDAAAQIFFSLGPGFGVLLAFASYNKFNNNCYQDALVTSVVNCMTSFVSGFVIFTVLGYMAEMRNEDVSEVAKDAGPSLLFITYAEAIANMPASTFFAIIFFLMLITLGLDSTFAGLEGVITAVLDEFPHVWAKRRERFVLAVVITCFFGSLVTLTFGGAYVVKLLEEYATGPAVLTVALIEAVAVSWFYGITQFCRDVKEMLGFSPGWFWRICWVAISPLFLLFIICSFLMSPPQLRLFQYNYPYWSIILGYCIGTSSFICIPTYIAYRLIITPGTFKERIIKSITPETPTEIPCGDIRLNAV
T4 sequence (P28223 whole entry): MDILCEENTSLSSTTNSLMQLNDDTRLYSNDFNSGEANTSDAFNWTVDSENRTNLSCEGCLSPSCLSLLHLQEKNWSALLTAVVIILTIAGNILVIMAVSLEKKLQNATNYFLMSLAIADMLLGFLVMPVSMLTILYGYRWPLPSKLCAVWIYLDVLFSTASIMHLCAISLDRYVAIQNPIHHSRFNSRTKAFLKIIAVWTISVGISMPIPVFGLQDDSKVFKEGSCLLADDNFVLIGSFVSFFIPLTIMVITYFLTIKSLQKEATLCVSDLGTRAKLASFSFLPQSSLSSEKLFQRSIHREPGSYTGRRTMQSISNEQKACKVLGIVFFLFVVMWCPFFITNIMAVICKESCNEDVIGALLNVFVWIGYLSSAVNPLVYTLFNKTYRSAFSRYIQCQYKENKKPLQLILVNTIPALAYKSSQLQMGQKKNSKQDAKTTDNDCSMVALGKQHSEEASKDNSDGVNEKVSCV
Sequence of dopaminergic receptors D3 (P35462 whole entry): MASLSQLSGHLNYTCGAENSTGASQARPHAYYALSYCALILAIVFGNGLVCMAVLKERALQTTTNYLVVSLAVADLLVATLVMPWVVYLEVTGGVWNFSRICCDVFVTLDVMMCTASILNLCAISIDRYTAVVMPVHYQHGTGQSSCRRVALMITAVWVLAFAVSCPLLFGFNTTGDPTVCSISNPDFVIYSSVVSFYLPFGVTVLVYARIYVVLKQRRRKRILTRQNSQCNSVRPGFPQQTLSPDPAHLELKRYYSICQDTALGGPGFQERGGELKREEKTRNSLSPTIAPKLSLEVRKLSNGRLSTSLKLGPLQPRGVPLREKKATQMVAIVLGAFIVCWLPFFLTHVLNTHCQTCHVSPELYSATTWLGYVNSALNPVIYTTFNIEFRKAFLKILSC
T6 sequence (P50406 whole entry): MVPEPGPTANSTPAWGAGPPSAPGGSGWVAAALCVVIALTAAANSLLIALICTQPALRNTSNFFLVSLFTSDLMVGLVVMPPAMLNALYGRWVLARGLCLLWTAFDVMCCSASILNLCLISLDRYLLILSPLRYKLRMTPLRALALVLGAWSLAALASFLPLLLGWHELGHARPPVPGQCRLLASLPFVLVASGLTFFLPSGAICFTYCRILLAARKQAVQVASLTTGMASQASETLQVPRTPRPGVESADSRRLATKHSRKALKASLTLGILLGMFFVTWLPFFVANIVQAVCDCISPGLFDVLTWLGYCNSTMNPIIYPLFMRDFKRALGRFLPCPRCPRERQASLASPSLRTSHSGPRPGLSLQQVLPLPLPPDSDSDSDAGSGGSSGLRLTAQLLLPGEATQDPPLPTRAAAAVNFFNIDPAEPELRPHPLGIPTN
T1 sequence (P35367 whole entry): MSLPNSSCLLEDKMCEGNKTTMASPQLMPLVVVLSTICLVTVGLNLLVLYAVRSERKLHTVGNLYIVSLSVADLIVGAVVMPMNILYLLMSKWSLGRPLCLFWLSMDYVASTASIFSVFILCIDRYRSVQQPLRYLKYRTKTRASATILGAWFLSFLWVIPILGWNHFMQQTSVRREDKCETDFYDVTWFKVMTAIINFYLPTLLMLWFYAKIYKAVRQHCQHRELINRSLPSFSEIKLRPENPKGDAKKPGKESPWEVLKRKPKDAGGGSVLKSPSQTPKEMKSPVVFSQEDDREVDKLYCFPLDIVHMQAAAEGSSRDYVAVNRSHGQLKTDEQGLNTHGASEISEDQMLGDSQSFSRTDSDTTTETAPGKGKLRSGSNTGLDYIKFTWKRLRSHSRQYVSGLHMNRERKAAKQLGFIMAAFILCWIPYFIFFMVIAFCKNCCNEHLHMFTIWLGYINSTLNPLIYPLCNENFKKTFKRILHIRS
Sequence of dopaminergic receptors D2 (P14416 whole entry): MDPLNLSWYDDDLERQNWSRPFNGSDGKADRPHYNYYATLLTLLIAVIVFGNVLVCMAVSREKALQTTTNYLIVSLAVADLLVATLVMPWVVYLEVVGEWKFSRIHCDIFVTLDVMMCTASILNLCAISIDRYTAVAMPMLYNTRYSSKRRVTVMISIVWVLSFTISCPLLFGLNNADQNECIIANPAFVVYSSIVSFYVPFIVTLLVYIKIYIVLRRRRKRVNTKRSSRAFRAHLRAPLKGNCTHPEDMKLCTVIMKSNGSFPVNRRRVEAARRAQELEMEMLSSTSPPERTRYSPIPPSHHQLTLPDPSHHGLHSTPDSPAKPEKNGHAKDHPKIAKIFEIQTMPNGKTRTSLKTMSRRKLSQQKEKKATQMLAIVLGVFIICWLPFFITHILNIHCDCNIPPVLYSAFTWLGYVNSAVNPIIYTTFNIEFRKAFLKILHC

SMILES	α1 [%] [1]	inhibition at 1 µM [2]	inhibition at 1 µM (M3 muscarinic receptors)	inhibition at 1 µM [3]	inhibition at 1 µM (5-HT2A receptor)	inhibition at 1 µM [4]	inhibition at 1 µM [5]	inhibition at 1 µM (receptors D4.4)	inhibition at 1 µM (5-HT6 receptor)	Ki (5-HT2A receptor)	Ki [5]	Ki (5-HT6 receptor)	SERT [%] [3]	5-HT2A [%] (5-HT2A receptor)	D3 [%] [4]	D2 [%] [5]	5-HT6 [%] (5-HT6 receptor)	also measured
Cc1cccc(S(=O)(=O)NC2CN(CCOc3cccc4[nH]ccc34)C2)c1 [Compound 48, N-[1-[2-(1H-Indol-4-yloxy)ethyl]azetidin-3-yl]-3-methyl-benzenesulphonamide]	87%	21%	1%	-3%	88%	104%	84%	80%	17%	–	–	–	–	–	–	–	–	–
COc1ccc2cc(S(=O)(=O)N[C@@H]3CCN(CCCc4noc5cc(F)ccc45)C3)ccc2c1 [Compound 230, N-[(3R)-1-[3-(6-Fluoro-1,2-benzoxazol-3-yl)propyl]pyrrolidin-3-yl]-6-methoxy-naphthalene-2-sulphonamide]	83%	71%	15%	75%	–	99%	99%	88%	96%	0.4 nM	1.1 nM	15 nM	–	–	–	–	–	–
CC1(C)Cc2cccc(OCCN3CCC(NS(=O)(=O)c4cccc(O)c4)CC3)c2O1 [Compound 109, N-[1-[2-[(2,2-Dimethyl-3H-benzofuran-7-yl)oxy]ethyl]-4-piperidine]-3-hydroxy-benzenesulphonamide]	44%	–	–	–	–	–	–	–	–	–	–	–	−10%	95%	86%	92%	67%	H1 [%] [2]: 65%; M3 [%] (M3 muscarinic receptors): 3%; D4.4 [%] (receptors D4.4): 69%
O=S(=O)(N[C@H]1CCN(CCCc2noc3cc(F)ccc23)C1)c1ccc2cc(Cl)ccc2c1 [Compound 201, 6-Chloro-N-[(3S)-1-[3-(6-fluoro-1,2-benzoxazol-3-yl)propyl]pyrrolidin-3-yl]naphthalene-2-sulphonamide]	82%	64%	9%	59%	98%	84%	99%	50%	94%	7 nM	15 nM	79 nM	–	–	–	–	–	–
O=S(=O)(NCC1CN(CCCc2noc3cc(F)ccc23)C1)c1cc2ccccc2s1 [Compound 127, N-[[1-[3-(6-Fluoro-1,2-benzoxazol-3-yl)propyl]azetidin-3-yl]methyl]benzo-thiophene-2-sulphonamide]	93%	54%	1%	–	–	–	–	55%	–	4.2 nM	22 nM	18 nM	49%	99%	79%	95%	96%	–
O=S(=O)(NC1CCN(CCCc2c[nH]c3ccc(Cl)cc23)C1)c1cccc(F)c1 (stereo not shown) [Compound 82, N-[1-[3-(5-Chloro-1H-indol-3-yl)propyl]pyrrolidin-3-yl]-3-fluoro-benzene-sulphonamide]	43%	61%	9%	100%	91%	94%	90%	94%	93%	–	–	37 nM	–	–	–	–	–	Ki ([3]; read-out: Inhibition constants Ki for SERT, SERT): 1.3 nM

— patent publication US20140135310A1, “SULPHONAMIDE DERIVATIVES OF ALICYCLIC AMINES FOR THE TREATMENT OF CENTRAL NERVOUS SYSTEM DISEASES” (Adamed Sp. z o.o., priority 2011, published 2014)
